The record followed here is US20050075375A1 (priority 2003, published 2005).

Like-named read-outs stand apart in the source and are kept apart here.

The experiment has as its system monocistronic NK5.1 HCV replicon in Huh7 cells. The experiment in a line: HCV replicon assay, monocistronic replicon cell line. The experiment is classed as cell-based, hepatitis C virus. To be noted: Hepatitis C virus, read-out: Mono EC50 Median. An outline of the steps:
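EC50 derives from the HCV RNA/GAPDH RNA ratio by one-step TaqMan RT-PCR, relative to DMSO-only wells. Compounds (six half-log concentrations, 0.6% DMSO) were incubated 3 days at 37 °C with NK5.1 monocistronic replicon Huh7 cells plated a day earlier.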
In general terms: A replicon is a self-replicating genome or part of one, used to study replication in cells.

Where [1] appears, read: Huh-7, 72 h, Table 1, monocistronic replicon in Huh7 cells, 3 days incubation, HCV RNA/GAPDH RNA by TaqMan RT-PCR.
[2] abbreviates: Huh-7, monocistronic NK5.1 HCV replicon in Huh7 cells, median value.

For `Cc1ccc(O)c(-c2nc(-c3ccc(C(F)(F)F)cn3)no2)c1` [Compound 225, 4-Methyl-2-[3-(5-trifluoromethyl-pyridin-2-yl)-[1,2,4]oxadiazol-5-yl]-phenol], the EC50 amounted to 7.5 µM under setting [1] and 7.5 µM under setting [2]. Consider `O=[N+]([O-])c1ccc(Cl)c(-c2nc(-c3ccc(C(F)(F)F)cn3)no2)c1` [Compound 226, 2-[5-(2-Chloro-5-nitro-phenyl)-[1,2,4]oxadiazol-3-yl]-5-trifluoromethyl-pyridine], for which the concentration giving a half-maximal response (EC50) by setting is: under setting [1], 4.3 µM; under setting [2], 4.3 µM. With `FC(F)(F)c1ccc(-c2noc(-c3cccc4ccccc34)n2)nc1` [Compound 227, 2-(5-Naphthalen-1-yl-[1,2,4]oxadiazol-3-yl)-5-trifluoromethyl-pyridine], the concentration for a half-maximal effect (EC50) runs as follows: under setting [1], > 32 µM; under setting [2], > 32 µM. In the case of `Oc1ccc(Br)cc1-c1nc(-c2ncccc2-c2ccccc2)no1` [Compound 228, 4-Bromo-2-[3-(3-phenyl-pyridin-2-yl)-[1,2,4]oxadiazol-5-yl]-phenol], the EC50 by setting is: under setting [1], 2.2 µM; under setting [2], 2.2 µM. Consider `Oc1ccc2ccccc2c1-c1nc(-c2ncccc2-c2ccccc2)no1` [Compound 229, 1-[3-(3-Phenyl-pyridin-2-yl)-[1,2,4]oxadiazol-5-yl]-naphthalen-2-ol], for which the EC50 is > 10 µM under setting [1] and > 10 µM under setting [2].

Consider `COc1cccc(-c2nc(-c3ncccc3-c3ccccc3)no2)c1O` [Compound 230, 2-Methoxy-6-[3-(3-phenyl-pyridin-2-yl)-[1,2,4]oxadiazol-5-yl]-phenol], for which the EC50 by setting is: under setting [1], 9.8 µM; under setting [2], 9.8 µM. Regarding `CN(C)c1ccc(-c2nc(-c3ncccc3-c3ccccc3)no2)c(O)c1` [Compound 231, 5-Dimethylamino-2-[3-(3-phenyl-pyridin-2-yl)-[1,2,4]oxadiazol-5-yl]-phenol], the EC50 is 2.4 µM under setting [1] and 2.4 µM under setting [2]. Turning to `Cc1ccc(O)c(-c2nc(-c3ncccc3-c3ccccc3)no2)c1` [Compound 232, 4-Methyl-2-[3-(3-phenyl-pyridin-2-yl)-[1,2,4]oxadiazol-5-yl]-phenol], the EC50 under setting [1] was > 32 µM and the half-maximal effective concentration (EC50) under setting [2] was > 32 µM.

For `COc1cc(O)c(-c2nc(-c3ncccc3-c3ccccc3)no2)c(OC)c1` [Compound 233, 3,5-Dimethoxy-2-[3-(3-phenyl-pyridin-2-yl)-[1 ,2,4]oxadiazol-5-yl]-phenol], the half-maximal effective concentration (EC50) is, setting by setting: under setting [1], 2.1 µM; under setting [2], 2.1 µM.

For `CCOc1ccc(-c2nc(-c3ncccc3-c3ccccc3)no2)c(O)c1` [Compound 234, 5-Ethoxy-2-[3-(3-phenyl-pyridin-2-yl)-[1,2,4]oxadiazol-5-yl]-phenol], the EC50 under setting [1] is > 19 µM and the EC50 under setting [2] is > 19 µM. For the molecule `COc1ccc(-c2nc(-c3ncccc3-c3ccccc3)no2)c(O)c1` [Compound 235, 5-Methoxy-2-[3-(3-phenyl-pyridin-2-yl)-[1,2,4]oxadiazol-5-yl]-phenol], the EC50 turned out to be 2.3 µM under setting [1] and 2.3 µM under setting [2]. For `Oc1ccc(O)c(-c2nc(-c3ncccc3-c3ccccc3)no2)c1` [Compound 236, 2-[3-(3-Phenyl-pyridin-2-yl)-[1,2,4]oxadiazol-5-yl]-benzene-1,4-diol], the EC50 is 2.2 µM under setting [1] and 2.2 µM under setting [2]. Regarding `COc1cccc(-c2nc(-c3ccc(NC(=O)OC(C)(C)C)cn3)no2)c1O` [Compound 237, {6-[5-(2-Hydroxy-3-methoxy-phenyl)-[1,2,4]oxadiazol-3-yl]-pyridin-3-yl}-carbamic acid tert-butyl ester], the EC50 was > 32 µM under setting [1] and > 32 µM under setting [2]. On to `COc1ccc(-c2nc(-c3ccc(NC(=O)OC(C)(C)C)cn3)no2)c(O)c1` [Compound 238, {6-[5-(2-Hydroxy-4-methoxy-phenyl)-[1,2,4]oxadiazol-3-yl]-pyridin-3-yl}-carbamic acid tert-butyl ester], for which the EC50 runs as follows: under setting [1], 1.9 µM; under setting [2], 1.9 µM. With `COc1ccc(O)c(-c2nc(-c3ccc(NC(=O)OC(C)(C)C)cn3)no2)c1` [Compound 239, {6-[5-(2-Hydroxy-5-methoxy-phenyl)-[1,2,4]oxadiazol-3-yl]-pyridin-3-yl}-carbamic acid tert-butyl ester], the concentration giving a half-maximal response (EC50) under setting [1] amounted to 2.1 µM and the EC50 under setting [2] was 2.1 µM. `COc1cc(O)c(-c2nc(-c3ncccc3C)no2)c(OC)c1` [Compound 240, 3,5-Dimethoxy-2-[3-(3-methyl-pyridin-2-yl)-[1,2,4]oxadiazol-5-yl]-phenol]: the EC50 amounted to 0.7 µM under setting [1] and 0.7 µM under setting [2]. For `COc1cccc(O)c1-c1nc(-c2ncccc2C)no1` [Compound 241, 3-Methoxy-2-[3-(3-methyl-pyridin-2-yl)-[1,2,4]oxadiazol-5-yl]-phenol], the EC50 under setting [1] is > 10 µM and the EC50 under setting [2] was > 10 µM. With `COc1cc(Br)cc(-c2nc(-c3ncccc3C)no2)c1O` [Compound 242, 4-Bromo-2-methoxy-6-[3-(3-methyl-pyridin-2-yl)-[1,2,4]oxadiazol-5-yl]-phenol], the EC50 runs as follows: under setting [1], 8.3 µM; under setting [2], 8.3 µM.

Regarding `CCOc1ccc(-c2nc(-c3ncccc3C)no2)c(O)c1` [Compound 243, 5-Ethoxy-2-[3-(3-methyl-pyridin-2-yl)-[1,2,4]oxadiazol-5-yl]-phenol], the concentration for a half-maximal effect (EC50) amounted to 2.2 µM under setting [1] and 2.2 µM under setting [2]. As for `CC(C)(C)OC(=O)Nc1ccc(-c2noc(-c3cc(Br)ccc3O)n2)nc1` [Compound 244, {6-[5-(5-Bromo-2-hydroxy-phenyl)-[1,2,4]oxadiazol-3-yl]-pyridin-3-yl}-carbamic acid tert-butyl ester], the half-maximal effective concentration (EC50) reads like this: under setting [1], 7.3 µM; under setting [2], 7.3 µM.

In the case of `Cc1ccc(O)c(-c2nc(-c3ccc(NC(=O)OC(C)(C)C)cn3)no2)c1` [Compound 245, {6-[5-(2-Hydroxy-5-methyl-phenyl)-[1,2,4]oxadiazol-3-yl]-pyridin-3-yl}-carbamic acid tert-butyl ester], the concentration for a half-maximal effect (EC50) under setting [1] is > 32 µM and the EC50 under setting [2] is > 32 µM. In the case of `COc1cccnc1-c1noc(-c2cccc(OC)c2O)n1` [Compound 246, 2-Methoxy-6-[3-(3-methoxy-pyridin-2-yl)-[1,2,4]oxadiazol-5-yl]-phenol], the EC50 came to 19 µM under setting [1] and 19 µM under setting [2].

As for `COc1ccc(-c2nc(-c3ncccc3OC)no2)c(O)c1` [Compound 247, 5-Methoxy-2-[3-(3-methoxy-pyridin-2-yl)-[1,2,4]oxadiazol-5-yl]-phenol], the concentration for a half-maximal effect (EC50) reads like this: under setting [1], 4.1 µM; under setting [2], 4.1 µM. Consider `COc1ccc(O)c(-c2nc(-c3ncccc3OC)no2)c1` [Compound 248, 4-Methoxy-2-[3-(3-methoxy-pyridin-2-yl)-[1,2,4]oxadiazol-5-yl]-phenol], for which the EC50 came to 13 µM under setting [1] and 13 µM under setting [2].

For the molecule `COc1cccnc1-c1noc(-c2cc(Br)ccc2O)n1` [Compound 249, 4-Bromo-2-[3-(3-methoxy-pyridin-2-yl)-[1,2,4]oxadiazol-5-yl]-phenol], the EC50 under setting [1] was found to be 0.76 µM and the concentration for a half-maximal effect (EC50) under setting [2] was 0.76 µM.

As to `COc1cccnc1-c1noc(-c2cc(C)ccc2O)n1` [Compound 250, 2-[3-(3-Methoxy-pyridin-2-yl)-[1,2,4]oxadiazol-5-yl]-4-methyl-phenol], the half-maximal effective concentration (EC50) amounted to 2 µM under setting [1] and 2 µM under setting [2]. For `COc1cccc(-c2nc(-c3ccc(N)cn3)no2)c1O` [Compound 251, 2-[3-(5-Amino-pyridin-2-yl)-[1,2,4]oxadiazol-5-yl]-6-methoxy-phenol], the half-maximal effective concentration (EC50) under setting [2] was > 32 µM. As for `COc1ccc(O)c(-c2nc(-c3ccc(N)cn3)no2)c1` [Compound 252, 2-[3-(5-Amino-pyridin-2-yl)-[1,2,4]oxadiazol-5-yl]-4-methoxy-phenol], under setting [2], the concentration for a half-maximal effect (EC50) came out at 9.2 µM. Same read-out and setting: under `COc1ccc(-c2nc(-c3ccc(N)cn3)no2)c(O)c1` [Compound 253] stands > 32 µM; under `Nc1ccc(-c2noc(-c3cc(Br)ccc3O)n2)nc1` [Compound 254, 2-[3-(5-Amino-pyridin-2-yl)-[1,2,4]oxadiazol-5-yl]-4-bromo-phenol], 32 µM. Consider `Cc1ccc(O)c(-c2nc(-c3ccc(N)cn3)no2)c1` [Compound 255, 2-[3-(5-Amino-pyridin-2-yl)-[1,2,4]oxadiazol-5-yl]-4-methyl-phenol], for which the EC50 under setting [2] was 24 µM. Still for that read-out and setting: as for `Oc1ccc2ccccc2c1-c1nc(-c2ncccc2Br)no1` [Compound 256, 1-[3-(3-Bromo-pyridin-2-yl)-[1,2,4]oxadiazol-5-yl]-naphthalen-2-ol], the figure is 2.1 µM. As for `COc1cccc(-c2nc(-c3ncccc3Br)no2)c1O` [Compound 257, 2-[3-(3-Bromo-pyridin-2-yl)-[1,2,4]oxadiazol-5-yl]-6-methoxy-phenol], the EC50 under setting [2] was > 32 µM. Still for that read-out and setting: under `COc1ccc(O)c(-c2nc(-c3ncccc3Br)no2)c1` [Compound 258, 2-[3-(3-Bromo-pyridin-2-yl)-[1,2,4]oxadiazol-5-yl]-4-methoxy-phenol] stands > 10 µM. Still for that read-out and setting: under `COc1ccc(-c2nc(-c3ncccc3Br)no2)c(O)c1` [Compound 259, 2-[3-(3-Bromo-pyridin-2-yl)-[1,2,4]oxadiazol-5-yl]-5-methoxy-phenol] stands 2.5 µM. The same measure, in the same setting: as for `COc1cccc(-c2nc(-c3ccc(NC(C)=O)cn3)no2)c1O` [Compound 260, N-{6-[5-(2-Hydroxy-3-methoxy-phenyl)-[1,2,4]oxadiazol-3-yl]-pyridin-3-yl}-acetamide], the figure is 44.3 µM; as for `COc1ccc(-c2nc(-c3ccc(NC(C)=O)cn3)no2)c(O)c1` [Compound 261, N-{6-[5-(2-Hydroxy-4-methoxy-phenyl)-[1,2,4]oxadiazol-3-yl]-pyridin-3-yl}-acetamide], 45.3 µM.

A word on the EC50: it is the midpoint of the concentration-response curve.
